The record followed here is US7723363B2, “2-pyridinylethylcarboxamide derivatives and their use as fungicides” (Bayer Cropscience SA, priority 2004, dated 2010).

A word on the melting point: it is the temperature, or range, at which the solid turns liquid.

The test system of one data set is Botrytis cinerea. Briefly: Effectiveness on Botrytis cinerea. The class given is in vivo. The note with it: at 330 ppm; comparison compounds of WO 01/11965.
In another data set the test system is Alternaria brassicae. Kind of data set: In vivo test on Alternaria brassicae (leaf spot of crucifers). The note with it: at 330 ppm; comparison compounds of WO 01/11965. The protocol:
The active ingredient tested is prepared by potter homogenisation in a concentrated suspension type formulation at 100 g/l. This suspension is then diluted with water to obtain the desired active material concentration.
Radish plants (Pernot variety) in starter cups, sown on a 50/50 peat soil-pozzolana substrate and grown at 18-20° C., are treated at the cotyledon stage by spraying with the aqueous suspension described above.
Plants, used as controls, are treated with an aqueous solution not containing the active material.
After 24 hours, the plants are contaminated by spraying them with an aqueous suspension of Alternaria brassicae spores (40,000 spores per cm^3). The spores are collected from a 12-13-day-old culture.
The contaminated radish plants are incubated for 6-7 days at about 18° C., under a humid atmosphere.
Grading is carried out 6 to 7 days after the contamination, in comparison with the control plants.

A further data set has as its system Peronospora parasitica. Kind of data set: Efficacy against Peronospora parasitica. The data set is classed as in vivo. The note with it: at 330 ppm; comparison compound of WO 01/11965.

The molecule `O=C(NCC(C(=O)O)c1nc(F)c(Cl)cc1F)c1sccc1I` (stereo not shown) [Compound A-3] came in with a melting point of 192 °C.
With `O=C(Cc1cccs1)NCc1ncc(C(F)(F)F)cc1Cl` [compound 101, N-{[3-chloro-5-(trifluoromethyl)-2-pyridinyl]methyl}-5-thienylacetamide], the “effectiveness on Botrytis cinerea” value in the data set with Botrytis cinerea is given as “no efficacy”. Also, the “effectiveness on Alternaria brassicae” value in the data set on Alternaria brassicae is on record as “poor efficacy”. In addition, the “efficacy against Peronospora parasitica” value in the data set on Peronospora parasitica is “no efficacy”.
Regarding `CCNC(=O)C(Cc1ncc(C(F)(F)F)cc1Cl)NC(=O)c1ccccc1` (stereo not shown) [compound 304, N-{1-ethylcarbamoyl-2-[3-chloro-5-(trifluoromethyl)-2-pyridinyl]-ethyl}-benzamide], the “effectiveness on Botrytis cinerea” value in the data set on Botrytis cinerea was “zero effectiveness”.
Take `CCNC(=O)C(Cc1ncc(C(F)(F)F)cc1Cl)NC(=O)c1ccc(Cl)cc1` (stereo not shown) [compound 306, N-{1-ethylcarbamoyl-2-[3-chloro-5-(trifluoromethyl)-2-pyridinyl]-ethyl}-4-chlorobenzamide]: in the data set with Botrytis cinerea, the “effectiveness on Botrytis cinerea” value is given as “zero effectiveness”.
For `CCNC(=O)C(Cc1ncc(C(F)(F)F)cc1Cl)NC(=O)c1cccc([N+](=O)[O-])c1` (stereo not shown) [compound 307, N-{1-ethylcarbamoyl-2-[3-chloro-5-(trifluoromethyl)-2-pyridinyl]ethyl}-3-nitrobenzamide], in the data set with Botrytis cinerea, the “effectiveness on Botrytis cinerea” value was “zero effectiveness”. The “effectiveness on Alternaria brassicae” value with Alternaria brassicae is recorded as “poor effectiveness”.
Take `CCNC(=O)C(Cc1ncc(C(F)(F)F)cc1Cl)NC(=O)c1ccccc1Br` (stereo not shown) [compound 310, N-{1-ethylcarbamoyl-2-[3-chloro-5-(trifluoromethyl)-2-pyridinyl]ethyl}-2-bromobenzamide]: the “effectiveness on Botrytis cinerea” value in the data set with Botrytis cinerea is “zero effectiveness”.
For the molecule `CNC(=O)C(Cc1ncc(C(F)(F)F)cc1Cl)NC(=O)c1ccccc1` (stereo not shown) [compound 314, N-{1-methylcarbamoyl-2-[3-chloro-5-(trifluoromethyl)-2-pyridinyl]ethyl}-benzamide], in the data set on Botrytis cinerea, the “effectiveness on Botrytis cinerea” value is reported as “zero effectiveness”.
For `CNC(=O)C(Cc1ncc(C(F)(F)F)cc1Cl)NC(=O)c1ccc(OC)cc1` (stereo not shown) [compound 315, N-{1-methylcarbamoyl-2-[3-chloro-5-(trifluoromethyl)-2-pyridinyl]ethyl}-4-methoxybenzamide], in the data set with Botrytis cinerea, the “effectiveness on Botrytis cinerea” value was “zero effectiveness”.
As to `CNC(=O)C(Cc1ncc(C(F)(F)F)cc1Cl)NC(=O)c1ccc(-c2ccccc2)cc1` (stereo not shown) [compound 316, N-{1-methylcarbamoyl-2-[3-chloro-5-(trifluoromethyl)-2-pyridinyl]-ethyl}-4-phenylbenzamide], the “effectiveness on Botrytis cinerea” value with Botrytis cinerea was “zero effectiveness”. The “effectiveness on Alternaria brassicae” value with Alternaria brassicae is “poor effectiveness”.
